Reference: patent publication US20150216933A1, “HEMATOPOIETIC STEM CELL GROWTH FACTOR” (DUKE UNIVERSITY, priority 2008, published 2015)

Key:
PI 3-kinase = type: cell-based, mouse
Text: In order to determine a potential mechanism through which PTN mediates HSC expansion, an examination was made as to whether PTN altered pathways that are known to be affected by RPTPβ/ζ (Meng et al, Proc Natl Acad Sci USA 97: 2603-8 (2000), Stoica et al, J Biol Chem 276:16772-9 (2001), Landgraf et al, J Biol Chem 283:25036-45 (2008), Deuel et al, Arch Biochem Biophys 397:162-71 (2002)). Canonical PTN signaling occurs via binding and inactivation of RPTPβ/ζ (Meng et al, Proc Natl Acad Sci USA 97: 2603-8 (2000)), which can facilitate the tyrosine phosphorylation of several intracellular substrates, including Akt and β-catenin (Souttou et al, J Biol Chem 272:19588-93 (1997), Gu et al, FEBS Lett 581:382-8 (2007)). […] BM 34^− KSL cells were treated with TSF with and without 100 ng/mL PTN in the presence and absence of 10 μM wortmannin, a PI 3-kinase inhibitor (Souttou et al, J Biol Chem 272:19588-93 (1997)).

[1] = test system: Bone marrow lineage negative (lin-) progenitor cells; assay: 7 day culture of bone marrow lin- progenitor cells with individual cytokines or TSF with and without PTN; type: cell-based; conditions: 7 days, individual cytokine
Procedure: Bone marrow lineage negative (lin-) progenitor cells were placed in culture for 7 days with 20 ng/mL thromobopoietin (TPO), 120 ng/mL stem cell factor (SCF) or 50 ng/mL Flt-3 ligand or the combination of all 3 cytokines (TSF) with and without 100 ng/mL pleiotrophin (PTN).

Row | Molecule | reduction in BM KSL cell expansion compared to TSF+PTN alone (PI 3-kinase) [fold] | reduction in total cell expansion compared to TSF+PTN alone (PI 3-kinase) [fold] | support of BM progenitor cells in culture [1]
1 | COC[C@H]1OC(=O)c2coc3c2[C@@]1(C)C1=C(C3=O)[C@@H]2CCC(=O)[C@@]2(C)C[C@H]1OC(C)=O [wortmannin] | 8.1 | 3.4 | 
2 | SCF: stem cell factor, 120 ng/mL, with or without PTN |  |  | modest expansion
3 | thromobopoietin: cytokine, 20 ng/mL alone in culture |  |  | Neither thromobopoietin alone nor Fit-3 ligand alone supported viable BM progenitor cells
4 | Fit-3 ligand: cytokine, 50 ng/mL alone in culture (protein, UniProt P49771 27-235, looked up) Fms-related tyrosine kinase 3 …: TQDCSFQHSPISSDFAVKIRELSDYLLQDYPVTVASNLQDEELCGGLWRLVLAQRWMERLKTVAGSKMQGLLERVNTEIHFVTKCAFQPPPSCLRFVQTNISRLLQETSEQLVALKPWITRQNFSRCLELQCQPDSSTLPPPWSPRPLEATAPTAPQPPLLLLLLLPVGLLLLAAAWCLHWQRTRRRTPRPGEQVPPVPSPQDLLLVEH |  |  | Neither thromobopoietin alone nor Fit-3 ligand alone supported viable BM progenitor cells
